# Experimental data taken from patent publication US20090238852A1, “METHODS FOR CONTROLLING INTRACELLULAR CALCIUM LEVELS ASSOCIATED WITH AN ISCHEMIC EVENT” (University of Utah Research Foundation, priority 2008, published 2009).
# Columns and labels:
# [1] = system: rabbit ventricular myocytes; assay: [Na^+]i in paced myocytes exposed to ATX, no metabolic inhibition; assay type: cell-based; settings: ATX 10 nM, HEPES + pacing; FIG. 9; n = 6
# Description: In these studies, intracellular calcium concentration [Ca^++]i was measured by flow cytometry. Measurement of isolated mouse and rabbit ventricular myocyte [Ca^2+]i and [Na^+]i by flow cytometry has been described (Zhang et al., J. Cardiovasc. Pharmacol. 51: 443-449 (2008); Li et al., J. Mol. Cell. Cardiol. 33: 2145-2155 (2001)). [Ca^++]i was measured with the Ca^++ sensitive fluorescent probe, Fluo 3-AM (Molecular Probes, Eugene, Oreg.), using a FACScan (Becton-Dickinson, MA). The cells were exposed to 4 μmol/L Fluo-3 AM for 30 min at 37° C. The cells were then separated into aliquots. […] Metabolic ischemia was accomplished by incubating cells in a glucose-free MKRBB solution (pH 7.40) containing 2 mmol/L sodium cyanide (NaCN) to impair mitochondrial and glycolytic generation of ATP. To reproduce the situation in the beating ischemic heart, during the period of metabolic ischemia, myocytes were placed in a 5-well chamber with equal volumes of myocyte suspensions from the same heart dissociation placed in each well. The chamber was water bathed to maintain temperature at 37° C. and bubbled with 5% CO2 in air to keep myocytes in suspension. Each well was fitted with platinum sheet electrodes on both sides for field stimulation. One chamber was constructed with a glass coverslip bottom so that myocytes can be observed microscopically to assess capture threshold. Placing electrodes were connected in series to a constant current pulse generator that delivers a 0.2 ampere pulse at 0.5 Hz. […] Approximately 2×10^3 myocytes were analyzed to calculate average emission fluorescence intensity in each sample. […] Only those cells with low fluorescence intensity at 670 nm (PI-negative cells or viable cells) were included in the comparative analysis of [Ca^++]i. The sample [Ca^2+]i values were calculated by Mn^2+ quenching (Sugishita et al, 2001) and [Na^+]i values by comparison with a standard curve of varied [Na^+]i versus Na Green fluorescence. […] Results were expressed as means±SEM. […]
# [2] = system: rabbit ventricular myocytes; assay: [Ca^++]i during paced aerobic metabolism (PH) with the Na^+ channel opener ATX; assay type: cell-based; settings: PH + ATX 20 nmol/L; n = 7; PH alone 406.8 ± 15.9
# Description: In these studies, intracellular calcium concentration [Ca^++]i was measured by flow cytometry. Measurement of isolated mouse and rabbit ventricular myocyte [Ca^2+]i and [Na^+]i by flow cytometry has been described (Zhang et al., J. Cardiovasc. Pharmacol. 51: 443-449 (2008); Li et al., J. Mol. Cell. Cardiol. 33: 2145-2155 (2001)). [Ca^++]i was measured with the Ca^++ sensitive fluorescent probe, Fluo 3-AM (Molecular Probes, Eugene, Oreg.), using a FACScan (Becton-Dickinson, MA). The cells were exposed to 4 μmol/L Fluo-3 AM for 30 min at 37° C. The cells were then separated into aliquots. After 40 min of wash, the cells were exposed to paced metabolic ischemia (MI) for 45 min at 37° C. Metabolic ischemia was accomplished by incubating cells in a glucose-free MKRBB solution (pH 7.40) containing 2 mmol/L sodium cyanide (NaCN) to impair mitochondrial and glycolytic generation of ATP. To reproduce the situation in the beating ischemic heart, during the period of metabolic ischemia, myocytes were placed in a 5-well chamber with equal volumes of myocyte suspensions from the same heart dissociation placed in each well. The chamber was water bathed to maintain temperature at 37° C. and bubbled with 5% CO2 in air to keep myocytes in suspension. […] Approximately 2×10^3 myocytes were analyzed to calculate average emission fluorescence intensity in each sample. […] Only those cells with low fluorescence intensity at 670 nm (PI-negative cells or viable cells) were included in the comparative analysis of [Ca^++]i. The sample [Ca^2+]i values were calculated by Mn^2+ quenching (Sugishita et al, 2001) and [Na^+]i values by comparison with a standard curve of varied [Na^+]i versus Na Green fluorescence. […] Results were expressed as means±SEM. […]
# To further examine the role of ODSH as a Na^+ inhibitor, additional experiments were performed in which the Na^+ channel opener amenone toxin II (ATX) was added to medium in a final concentration of 20 nmol/L to open the cardiac myocyte membrane Na^+ channel. […] Intracellular calcium concentration [Ca^++]i was monitored as earlier. […]
# [3] = system: rabbit ventricular myocytes; assay: Intracellular calcium [Ca^++]i in ventricular myocytes during paced metabolic ischemia (PMI), Fluo-3 flow cytometry; assay type: cell-based; settings: n = 7
# Text: Consequently, it prevents intracellular sodium overload and subsequent reverse mode operation of the sodium-calcium exchanger. The effect of 2-O, 3-O desulfated heparin on accumulation of intracellular Ca^++ during ischemia was studied in an adult rabbit ventricular myocyte model previously reported (Boston D R, et al. J Pharmacol Exp Ther 285:716-723, 1998; Li F, et al. J Mol Cell Cardiol 33:2145-2155, 2001). Isolated cardiomyocytes have been validated as reliable models of ischemia (Diaz, R J, Wilson G J. Cardiovasc Res 70:286-296, 2006).
# To produce the model, hearts are removed from albino rabbits (2-3 kg) anesthetized with sodium pentobarbital (65 mg/kg IV). The heart was immediately attached to an aorta cannula. Continuous perfusion of the coronary arteries at 37° C. by a pump (Masterflex, Cole-Parmer Instrument Co., Chicago, Ill.) was initiated at a perfusion pressure of 60 mm Hg. The heart was first perfused with nominally Ca^++-free modified Krebs-Ringer bicarbonate buffered solution (MKRBB, pH 7.40, containing in mmol/L: NaCl 126, KCl 4.4, […], MgCl2 1.0, HEPES 24, probenecid 0.5 and glucose 5) for 10 min, immediately followed by 15-25 min of recirculating perfusion with the same solutions containing 0.3 mg/ml collagenase (Type 2, Worthington Biochemical, Freehold, N.J.), 0.4 mg/mL hyaluronidase (Type-S, Sigma-Aldrich, St. Louis, Mo.) and 50 μmol/L CaCl2. The heart was then detached from the cannula, and the left ventricle was minced and transferred to a 50 mL conical tube with the same solution containing 0.24 mg/mL collagenase, 0.02 mg/mL trypsin and 50 μmol/L Ca^++ for a second digestion. The minced tissue was continuously agitated by gassing the solution with 5% CO2 and 95% O2 to help release isolated myocytes. The resulting supernatant was transferred to another conical tube with the same volume of the same solution containing 0.03 mg/mL of trypsin inhibitor (Sigma-Aldrich). The cell suspension was centrifuged at 5×g for 5 minutes. The supernatant was discarded and cells were resuspended in solution with a higher Ca^++ concentration (200 μmol/L) and incubated in a CO2 incubator (5% CO2, 28° C.) to settle down cells by gravity for 10 min. The same procedure was repeated twice to bring up the Ca^++ concentration slowly (500, then 1000 μmol/L). Calcium step-up solutions were made from MKRBB with 2% albumin, 50 μmol/L CaCl2 mixed with the appropriate amount of minimum essential medium (MEM, Gibco Laboratories, Grand Island, N.Y.). At the end of isolation, cells were filtered with a […] to avoid cell clumping during flow cytometry studies. The yield of rod-shaped viable myocytes averaged 50%. Cells were used for experiments within 4 hours after dissociation.
# In these studies, intracellular calcium concentration [Ca^++]i was measured by flow cytometry. Measurement of isolated mouse and rabbit ventricular myocyte [Ca^2+]i and [Na^+]i by flow cytometry has been described (Zhang et al., J. Cardiovasc. Pharmacol. 51: 443-449 (2008); Li et al., J. Mol. Cell. Cardiol. 33: 2145-2155 (2001)). [Ca^++]i was measured with the Ca^++ sensitive fluorescent probe, Fluo 3-AM (Molecular Probes, Eugene, Oreg.), using a FACScan (Becton-Dickinson, MA). The cells were exposed to 4 μmol/L Fluo-3 AM for 30 min at 37° C. The cells were then separated into aliquots. After 40 min of wash, the cells were exposed to paced metabolic ischemia (MI) for 45 min at 37° C. Metabolic ischemia was accomplished by incubating cells in a glucose-free MKRBB solution (pH 7.40) containing 2 mmol/L sodium cyanide (NaCN) to impair mitochondrial and glycolytic generation of ATP. To reproduce the situation in the beating ischemic heart, during the period of metabolic ischemia, myocytes were placed in a 5-well chamber with equal volumes of myocyte suspensions from the same heart dissociation placed in each well. The chamber was water bathed to maintain temperature at 37° C. and bubbled with 5% CO2 in air to keep myocytes in suspension. […]
# NCE = settings: cited from earlier work
molecule,measurement,setting,value
"ATX: Na^+ channel opener; selective activator of INa,L [reference compound]",effect on [Na^+]i in paced myocytes,[1],substantial increase in [Na^+]i
same,[Ca^++]i,[2],529.1 ± 29.3 nM
"CS(=O)(=O)O.N=C(N)SCCc1ccc(OCc2ccc([N+](=O)[O-])cc2)cc1 [KBR, 2-[2-[4-(4-nitrobenzyloxy)phenyl]ethyl]isothiourea metanesulfonate, reference compound]",[Ca^++]i,"[3]; Table 6: PMI + KBR 10 μmol/L, PMI alone 985.5 ± 42.7",666.5 ± 50.7 nM
same,selectivity for reserve mode versus forward mode,NCE; Iwamoto 1996,50 fold
"COc1ccccc1OCC(O)CN1CCN(CC(=O)Nc2c(C)cccc2C)CC1 (stereo not drawn) [ranolazine, reference compound]",effect on [Ca^2+]i during P-MI,"[3]; each alone: ODSH 100 μg/ml, ranolazine 10 μM, FIG. 8",reduced [Ca^2+]i to a similar degree
"CCOc1ccc(Oc2ccc(OCc3cc(F)ccc3F)cc2)c(N)c1 [SEA0400, 2-[4-[(2,5-difluorophenyl)methoxy]-phenoxy]-5-ethoxyaniline]",selectivity for the reverse versus forward mode of the NCE,NCE; Matsuda 2001,lacks selectivity for the reverse versus forward mode of the NCE
